Tests used:
Assay in all cases: Kinase profiling in a biochemical assay panel (mobility shift assays and ELISA), %-inhibition at 1 μM; selectivity entropy
[1] = molecular target: T1, panel of more than 300 wild-type and mutant kinases (313 kinase panel) (Homo sapiens, UniProt P41743)
T1 sequence (P41743 1-596): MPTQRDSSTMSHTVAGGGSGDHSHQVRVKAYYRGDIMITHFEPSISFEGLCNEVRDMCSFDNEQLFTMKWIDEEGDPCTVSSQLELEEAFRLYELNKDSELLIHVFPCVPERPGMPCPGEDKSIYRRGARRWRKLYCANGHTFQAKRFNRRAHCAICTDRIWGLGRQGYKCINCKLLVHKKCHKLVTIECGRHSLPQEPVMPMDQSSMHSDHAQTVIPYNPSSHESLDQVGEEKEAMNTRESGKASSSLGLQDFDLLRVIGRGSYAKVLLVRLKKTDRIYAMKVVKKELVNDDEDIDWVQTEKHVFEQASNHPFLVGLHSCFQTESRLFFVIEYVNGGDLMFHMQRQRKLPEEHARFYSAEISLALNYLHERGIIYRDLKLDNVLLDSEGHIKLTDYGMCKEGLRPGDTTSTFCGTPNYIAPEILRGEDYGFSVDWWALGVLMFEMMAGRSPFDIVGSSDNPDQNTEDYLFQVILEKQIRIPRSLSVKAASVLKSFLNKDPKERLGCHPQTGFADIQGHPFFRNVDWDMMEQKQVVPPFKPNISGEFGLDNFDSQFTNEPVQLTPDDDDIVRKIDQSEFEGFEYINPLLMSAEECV

[2] = molecular target: panel of more than 300 wild-type and mutant kinases (313 kinase panel) (Homo sapiens, UniProt Q16620)
[3] = molecular target: panel of more than 300 wild-type and mutant kinases (313 kinase panel) (Homo sapiens, UniProt Q9H0K1)
Sequence of panel of more than 300 wild-type and mutant kinases (313 kinase panel) (Homo sapiens, UniProt Q9H0K1) (Q9H0K1 whole entry, change not shown): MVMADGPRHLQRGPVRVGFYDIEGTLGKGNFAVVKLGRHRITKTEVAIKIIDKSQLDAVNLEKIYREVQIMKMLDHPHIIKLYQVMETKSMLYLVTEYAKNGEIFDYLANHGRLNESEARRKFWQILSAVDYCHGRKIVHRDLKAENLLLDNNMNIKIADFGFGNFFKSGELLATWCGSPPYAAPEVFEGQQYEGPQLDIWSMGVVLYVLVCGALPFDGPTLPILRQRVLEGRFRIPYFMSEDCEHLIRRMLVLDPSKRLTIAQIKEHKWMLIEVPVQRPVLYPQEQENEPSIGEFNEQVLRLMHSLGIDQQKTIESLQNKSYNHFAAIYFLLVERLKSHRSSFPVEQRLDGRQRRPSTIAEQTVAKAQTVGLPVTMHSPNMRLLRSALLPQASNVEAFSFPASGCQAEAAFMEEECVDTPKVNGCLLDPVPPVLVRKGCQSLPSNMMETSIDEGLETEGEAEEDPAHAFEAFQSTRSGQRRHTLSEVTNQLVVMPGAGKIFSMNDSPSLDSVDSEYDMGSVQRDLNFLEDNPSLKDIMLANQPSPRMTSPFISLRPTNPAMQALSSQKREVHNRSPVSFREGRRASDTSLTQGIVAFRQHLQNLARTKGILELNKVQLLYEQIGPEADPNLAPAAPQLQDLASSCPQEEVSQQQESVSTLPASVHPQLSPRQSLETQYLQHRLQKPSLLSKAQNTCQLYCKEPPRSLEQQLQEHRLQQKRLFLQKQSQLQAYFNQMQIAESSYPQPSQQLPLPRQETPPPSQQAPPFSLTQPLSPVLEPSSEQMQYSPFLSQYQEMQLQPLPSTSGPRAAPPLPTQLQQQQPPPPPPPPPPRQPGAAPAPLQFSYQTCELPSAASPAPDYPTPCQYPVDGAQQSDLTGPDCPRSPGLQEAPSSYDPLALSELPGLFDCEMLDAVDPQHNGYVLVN

[4] = molecular target: panel of more than 300 wild-type and mutant kinases (313 kinase panel) (Homo sapiens, UniProt Q00534)
[5] = molecular target: panel of more than 300 wild-type and mutant kinases (313 kinase panel) (Homo sapiens, UniProt Q96RG2)
Sequence of panel of more than 300 wild-type and mutant kinases (313 kinase panel) (Homo sapiens, UniProt Q96RG2) (Q96RG2 whole entry, change not shown): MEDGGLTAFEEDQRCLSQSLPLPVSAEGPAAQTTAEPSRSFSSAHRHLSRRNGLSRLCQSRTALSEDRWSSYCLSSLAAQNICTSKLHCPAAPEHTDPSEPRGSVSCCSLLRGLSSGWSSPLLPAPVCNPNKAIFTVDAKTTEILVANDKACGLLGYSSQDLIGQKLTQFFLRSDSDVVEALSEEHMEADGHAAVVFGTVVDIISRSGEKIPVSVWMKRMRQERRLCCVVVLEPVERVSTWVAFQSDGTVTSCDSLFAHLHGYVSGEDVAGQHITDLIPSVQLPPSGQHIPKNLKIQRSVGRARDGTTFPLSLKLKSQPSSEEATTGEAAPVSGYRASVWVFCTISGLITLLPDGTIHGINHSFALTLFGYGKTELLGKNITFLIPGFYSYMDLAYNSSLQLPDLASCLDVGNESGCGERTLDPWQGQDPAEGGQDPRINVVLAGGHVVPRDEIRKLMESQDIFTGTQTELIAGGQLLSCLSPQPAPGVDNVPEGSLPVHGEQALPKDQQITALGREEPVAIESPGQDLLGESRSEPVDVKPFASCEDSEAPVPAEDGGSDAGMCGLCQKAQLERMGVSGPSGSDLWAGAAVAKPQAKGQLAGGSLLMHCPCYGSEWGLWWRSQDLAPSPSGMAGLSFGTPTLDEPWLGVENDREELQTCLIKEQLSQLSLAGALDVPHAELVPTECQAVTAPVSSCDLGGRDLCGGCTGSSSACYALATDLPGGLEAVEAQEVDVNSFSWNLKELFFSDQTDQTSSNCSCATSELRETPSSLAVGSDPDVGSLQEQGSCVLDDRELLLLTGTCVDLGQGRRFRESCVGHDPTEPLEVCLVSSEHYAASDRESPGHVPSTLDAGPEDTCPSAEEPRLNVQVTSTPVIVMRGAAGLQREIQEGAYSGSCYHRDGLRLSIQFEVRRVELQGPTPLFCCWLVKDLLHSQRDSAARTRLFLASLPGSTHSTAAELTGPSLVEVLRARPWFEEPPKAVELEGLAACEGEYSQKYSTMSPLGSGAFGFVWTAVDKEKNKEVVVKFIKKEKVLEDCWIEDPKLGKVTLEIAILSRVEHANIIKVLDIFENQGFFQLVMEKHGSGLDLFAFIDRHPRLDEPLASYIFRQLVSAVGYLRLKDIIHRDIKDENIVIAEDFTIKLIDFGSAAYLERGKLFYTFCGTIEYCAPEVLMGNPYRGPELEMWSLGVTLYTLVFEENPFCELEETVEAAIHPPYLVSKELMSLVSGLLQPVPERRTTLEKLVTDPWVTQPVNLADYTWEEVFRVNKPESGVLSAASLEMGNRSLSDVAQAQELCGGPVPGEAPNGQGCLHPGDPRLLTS

[6] = molecular target: T2, panel of more than 300 wild-type and mutant kinases (313 kinase panel) (Homo sapiens, UniProt Q99759)
T2 sequence (Q99759 1-626): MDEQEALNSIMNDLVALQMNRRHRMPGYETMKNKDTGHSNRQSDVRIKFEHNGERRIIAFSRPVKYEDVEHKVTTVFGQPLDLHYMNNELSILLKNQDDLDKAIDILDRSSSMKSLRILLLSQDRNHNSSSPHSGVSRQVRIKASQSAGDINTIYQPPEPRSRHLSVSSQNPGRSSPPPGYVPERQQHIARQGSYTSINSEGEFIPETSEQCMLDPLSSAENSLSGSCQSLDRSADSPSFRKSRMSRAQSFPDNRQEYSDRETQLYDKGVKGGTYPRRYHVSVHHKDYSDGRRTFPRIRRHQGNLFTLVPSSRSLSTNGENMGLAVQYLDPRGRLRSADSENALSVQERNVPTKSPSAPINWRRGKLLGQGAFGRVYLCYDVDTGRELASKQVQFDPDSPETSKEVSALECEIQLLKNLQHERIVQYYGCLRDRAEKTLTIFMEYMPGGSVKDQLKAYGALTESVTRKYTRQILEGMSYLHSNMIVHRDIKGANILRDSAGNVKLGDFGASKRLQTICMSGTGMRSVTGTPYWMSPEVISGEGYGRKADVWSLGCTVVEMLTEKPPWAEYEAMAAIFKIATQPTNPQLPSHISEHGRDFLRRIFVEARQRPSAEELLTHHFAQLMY

[7] = molecular target: T3, panel of more than 300 wild-type and mutant kinases (313 kinase panel) (Homo sapiens, UniProt Q12852)
T3 sequence (Q12852 1-859): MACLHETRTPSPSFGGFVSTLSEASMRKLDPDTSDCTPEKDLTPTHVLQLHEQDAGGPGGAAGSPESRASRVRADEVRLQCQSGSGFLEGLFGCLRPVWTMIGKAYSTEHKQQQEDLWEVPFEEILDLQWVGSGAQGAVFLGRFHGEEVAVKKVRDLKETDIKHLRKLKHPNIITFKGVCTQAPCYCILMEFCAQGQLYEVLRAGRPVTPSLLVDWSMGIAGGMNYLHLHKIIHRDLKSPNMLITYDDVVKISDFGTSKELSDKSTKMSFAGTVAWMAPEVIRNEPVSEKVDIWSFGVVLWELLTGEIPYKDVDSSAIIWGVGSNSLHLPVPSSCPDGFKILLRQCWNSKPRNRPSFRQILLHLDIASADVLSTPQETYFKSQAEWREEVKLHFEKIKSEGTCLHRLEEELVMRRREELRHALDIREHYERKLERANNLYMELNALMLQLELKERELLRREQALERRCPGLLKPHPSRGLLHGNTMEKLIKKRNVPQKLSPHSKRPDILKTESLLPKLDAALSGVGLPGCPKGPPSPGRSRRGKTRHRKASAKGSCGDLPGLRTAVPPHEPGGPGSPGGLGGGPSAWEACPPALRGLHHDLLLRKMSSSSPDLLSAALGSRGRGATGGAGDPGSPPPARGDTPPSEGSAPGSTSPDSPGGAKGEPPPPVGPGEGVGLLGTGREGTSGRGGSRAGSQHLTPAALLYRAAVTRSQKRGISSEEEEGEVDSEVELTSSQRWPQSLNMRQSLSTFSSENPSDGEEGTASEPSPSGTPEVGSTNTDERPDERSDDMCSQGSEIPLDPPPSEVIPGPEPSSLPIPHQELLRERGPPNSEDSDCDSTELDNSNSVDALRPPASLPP

[8] = kinase CDK6/CycD3, 1 μM compound
[9] = kinase MAP3K3, compound at 1 μM

Row | SMILES | %-inhibition of PKCι ([1]; kinase PKCι, 1 μM) [%] | %-inhibition of TRKB ([2]; kinase TRKB, 1 μM) [%] | %-inhibition of QIK ([3]; kinase QIK, 1 μM) [%] | %-inhibition, CDK6/CycD3 [4, 8] [%] | %-inhibition of PASK ([5]; kinase PASK, 1 μM) [%] | %-inhibition of MAP3K3 [6, 9] [%] | %-inhibition of DLK ([7]; kinase DLK, compound at 1 μM) [%] | %-inhibition of DLK ([7]; 1 µM) [%] | %-inhibition of PKCι ([1]; 1 µM) [%] | %-inhibition of TRKB ([2]; 1 µM) [%] | %-inhibition of QIK ([3]; 1 µM) [%] | %-inhibition, CDK6/CycD3 ([4]; 1 µM) [%] | %-inhibition of PASK ([5]; 1 µM) [%] | %-inhibition of MAP3K3 ([6]; 1 µM) [%]
1 | CO[C@H]1C[C@@H]2CC[C@@H](C)[C@@](O)(O2)C(=O)C(=O)N2CCCC[C@H]2C(=O)O[C@H]([C@H](C)C[C@@H]2CC[C@@H](OCCO)[C@H](OC)C2)CC(=O)[C@H](C)/C=C(\C)[C@@H](O)[C@@H](OC)C(=O)[C@H](C)C[C@H](C)/C=C/C=C/C=C/1C [everolimus] | 3.78 | -0.542 | -3 | -3 | -9 | 3.6 | -5 |  |  |  |  |  |  | 
2 | CCN(CC)CCNC(=O)c1c(C)[nH]c(/C=C2\C(=O)Nc3ccc(F)cc32)c1C [sunitinib] |  |  |  |  |  | 76 |  |  |  |  |  |  |  | 
3 | CC(=O)Nc1cccc(-n2c(=O)n(C3CC3)c(=O)c3c(Nc4ccc(I)cc4F)n(C)c(=O)c(C)c32)c1 [trametinib] | 9 | -3.4 | -4.66 | -4.23 | -0.187 | -6.63 | -2.85 |  |  |  |  |  |  | 
4 | O=S(=O)(c1cccc2cnccc12)N1CCCNCC1 [fasudil] | 14 | -2.66 | 3.26 | -5.68 | 2.25 | -14 | -11 |  |  |  |  |  |  | 
5 | N#CC[C@H](C1CCCC1)n1cc(-c2ncnc3[nH]ccc23)cn1 [ruxolitinib] | 1.52 | 88 | 35 | -6 | 0.47 | 36 |  | -0.311 |  |  |  |  |  | 
6 | COc1cc2nccc(Oc3ccc(NC(=O)C4(C(=O)Nc5ccc(F)cc5)CC4)cc3)c2cc1OC [cabozantinib] | 15 |  | 0.408 | 0.312 | -2.16 | 9 | 36 |  |  |  |  |  |  | 
7 | CC(C)(C)c1nc(-c2cccc(NS(=O)(=O)c3c(F)cccc3F)c2F)c(-c2ccnc(N)n2)s1 [dabrafenib] | 14 | 86 | 80 |  | 1.12 | 6 | -10 |  |  |  |  |  |  | 
8 | C[C@@H](Oc1cc(-c2cnn(C3CCNCC3)c2)cnc1N)c1c(Cl)ccc(F)c1Cl [crizotinib] | -5 | 102 | 38 | 0.0624 | 1 |  | 86 |  |  |  |  |  |  | 
9 | CCCS(=O)(=O)Nc1ccc(F)c(C(=O)c2c[nH]c3ncc(-c4ccc(Cl)cc4)cc23)c1F [vemurafenib] | -16 | 11 | 6 | 2.43 | 2.35 | 8 | 8 |  |  |  |  |  |  | 
10 | COc1cc2c(Nc3ccc(Br)cc3F)ncnc2cc1OCC1CCN(C)CC1 [vandetanib] | 6 | 26 | 95 | -1.19 | -4.23 | 9 | 20 |  |  |  |  |  |  | 
11 | C#Cc1cccc(Nc2ncnc3cc(OCCOC)c(OCCOC)cc23)c1 [erlotinib] |  |  |  |  |  |  |  | -1.89 | 9 | 0.183 | 18 | 9 | -9 | 17
12 | CNC(=O)c1cc(Oc2ccc(NC(=O)Nc3ccc(Cl)c(C(F)(F)F)c3)c(F)c2)ccn1 [regorafenib] | -8 | 74 | -5.63 | -1.31 | 0.282 | 9 | -13 |  |  |  |  |  |  | 
13 | Cc1ccc(Nc2nccc(N(C)c3ccc4c(C)n(C)nc4c3)n2)cc1S(N)(=O)=O [pazopanib] | 0.255 |  | 17 | 9 | -2.41 | 77 | 40 |  |  |  |  |  |  | 
14 | Cc1nc(Nc2ncc(C(=O)Nc3c(C)cccc3Cl)s2)cc(N2CCN(CCO)CC2)n1 [dasatinib] |  |  |  | 9 |  | 88 | 20 |  |  |  |  |  |  | 
